The target of data set [1] is T1, human vasopressin V1b receptor (Homo sapiens, UniProt P47901).
T1 construct: expressed in transfected cells; host or cells: CHO-K1 (clone 3H2; cell line hV1b-3H2_CHO), membrane preparation
T1 sequence (P47901 1-424): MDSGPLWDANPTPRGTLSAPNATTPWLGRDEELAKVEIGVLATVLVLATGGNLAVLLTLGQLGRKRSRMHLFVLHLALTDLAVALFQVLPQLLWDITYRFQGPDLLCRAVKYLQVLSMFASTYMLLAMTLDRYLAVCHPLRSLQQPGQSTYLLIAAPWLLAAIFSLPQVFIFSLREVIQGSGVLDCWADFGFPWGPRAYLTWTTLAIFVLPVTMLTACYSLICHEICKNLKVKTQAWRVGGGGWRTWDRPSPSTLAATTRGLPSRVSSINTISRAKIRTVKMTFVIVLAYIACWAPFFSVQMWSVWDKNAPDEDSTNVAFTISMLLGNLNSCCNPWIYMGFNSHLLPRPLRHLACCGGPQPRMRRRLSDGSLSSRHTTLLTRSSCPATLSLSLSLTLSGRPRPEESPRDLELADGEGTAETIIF
Nature of the data set: Vasopressin V1b receptor binding assay. The settings on record: membranes from CHO-K1 cells with human V1b receptor, 1.5 nM 3H-AVP. How it is done: 1. Vasopressin V1b Receptor Binding Assay:
The substance concentration was further diluted 1:5 in the assay mixture (2% DMSO in the mixture).
The nonspecific binding was determined with 1 M AVP (Bachem # H1780). All determinations were carried out as triplicate determinations.

Data set [2] is described as follows: Determination of the microsomal half-life / microsomal clearance. The settings on record: human liver microsomes, 0.5 μM test substance, 0.25 mg microsomal protein/ml; for microsomal CLint at 0.5 μM: pH 7.4. It counts as in vitro ADME. The procedure:
5. Determination of the Microsomal Half-Life:
The metabolic stability of the compounds of the invention was determined in the following assay.
The test substances were incubated in a concentration of 0.5 μM as follows: 0.5 μM test substance are preincubated together with liver microsomes from different species (from rat, human or other species) (0.25 mg of microsomal protein/ml) in 0.05 M potassium phosphate buffer of pH 7.4 in microtiter plates at 37° C. for 5 min. The reaction is started by adding NADPH (1 mg/mL). After 0, 5, 10, 15, 20 and 30 min, 50 μl aliquots are removed, and the reaction is immediately stopped and cooled with the same volume of acetonitrile. The samples are frozen until analyzed. The remaining concentration of undegraded test substance is determined by MSMS. The half-life (T½) is determined from the gradient of the signal of test substance/unit time plot, it being possible to calculate the half-life of the test substance, assuming first order kinetics, from the decrease in the concentration of the compound with time. The microsomal clearance (mCl) is calculated from mCl=In2/T½/(content of microsomal protein in mg/ml)×1000 […] (modified from references: Di, The Society for Biomoleculur Screening, 2003, 453-462; Obach, DMD, 1999 vol 27. N 11, 1350-1359).
For orientation: Microsomes from liver hold many membrane-bound enzymes, among them those of drug oxidation.

The target in data set [3] is human vasopressin V1a receptor (Homo sapiens, UniProt P37288). Nature of the data set: Vasopressin V1a receptor binding assay. Particulars: selectivity: quotient of Ki at human V1a and Ki at human V1b.
human vasopressin V1a receptor, sequence (P37288 whole entry): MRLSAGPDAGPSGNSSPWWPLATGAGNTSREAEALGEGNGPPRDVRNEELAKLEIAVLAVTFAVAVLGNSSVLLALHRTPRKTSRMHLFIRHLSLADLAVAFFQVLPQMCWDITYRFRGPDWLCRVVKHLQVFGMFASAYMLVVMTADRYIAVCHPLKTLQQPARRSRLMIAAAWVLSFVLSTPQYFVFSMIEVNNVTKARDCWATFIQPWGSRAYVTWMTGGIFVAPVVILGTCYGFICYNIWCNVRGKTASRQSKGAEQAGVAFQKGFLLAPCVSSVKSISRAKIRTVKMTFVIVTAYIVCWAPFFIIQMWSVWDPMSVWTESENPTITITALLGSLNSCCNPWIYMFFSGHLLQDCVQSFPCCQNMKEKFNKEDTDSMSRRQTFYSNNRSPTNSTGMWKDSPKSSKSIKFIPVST

`CCOc1ncccc1C1(NC(=O)N2CCN(C3CCN(C)CC3)CC2)C(=O)N(S(=O)(=O)c2ccc(OC)cc2OC)c2ccc(Cl)cc21` (racemic) [Example 1, (±)-4-(1-Methylpiperidin-4-yl)piperazin-1-[5-chloro-1-(2,4-dimethoxyphenylsulfonyl)-3-(2-ethoxypyridin-3-yl)-2-oxo-2,3-dihydro-1H-indol-3-yl]carboxamide] displayed a Ki in data set [1] below 1 nM. Further, the intrinsic clearance (microsomal CLint) at 0.5 μM in data set [2] was in the range of 75 to 100 µL/min/mg. Besides, in data set [3], the “Ki(h-V1a)/Ki(h-V1b)” value is “+++ (>75)”.

Compound `CCOc1ncccc1C1(NC(=O)N2CCN(C3CCN(C)CC3)CC2)C(=O)N(S(=O)(=O)c2ccccc2)c2ccc(Cl)cc21.O=C(O)C(F)(F)F` (racemic) [Example 3, (±)-4-(1-Methylpiperidin-4-yl)piperazine-1-[1-phenylsulfonyl-5-chloro-3-(2-ethoxypyridin-3-yl)-2-oxo-2,3-dihydro-1H-indol-3-yl]carboxamide, trifluoroacetic acid salt] yielded an inhibitory constant (Ki) in data set [1] of 1 to 10 nM. In addition, the Human microsomal clearance entry in data set [2] was “+++ (<50 μl min^−1 mg^−1)”. Further, the “Ki(h-V1a)/Ki(h-V1b)” value in data set [3] was “++ (25-75)”.

The compound `CCOc1ncccc1C1(NC(=O)N2CCC(C3CCN(C)CC3)CC2)C(=O)N(S(=O)(=O)c2ccc(OC)cc2OC)c2ccc(Cl)cc21` (racemic) [Example 13, (±)-1′-Methyl-[4,4′]bipiperidinyl-1-[5-chloro-1-(2,4-dimethoxyphenylsulfonyl)-3-(2-ethoxypyridin-3-yl)-2-oxo-2,3-dihydro-1H-indol-3-yl]carboxamide] had a Ki in data set [1] below 1 nM. In data set [2], this compound showed a microsomal CLint at 0.5 μM of 75 to 100 µL/min/mg. Besides, the “Ki(h-V1a)/Ki(h-V1b)” value in data set [3] was “++ (25-75)”.

As to `CCOc1ncc(C)cc1C1(NC(=O)N2CCN(C3CCN(C)CC3)CC2)C(=O)N(S(=O)(=O)c2ccc(OC)cc2OC)c2ccc(Cl)cc21.O=C(O)C(F)(F)F` (racemic) [Example 14, (±)-4-(1-Methylpiperidin-4-yl)piperazine-1-[5-chloro-1-(2,4-dimethoxyphenylsulfonyl)-3-(2-ethoxy-5-methylpyridin-3-yl)-2-oxo-2,3-dihydro-1H-indol-3-yl]carboxamide, trifluoroacetic acid salt], in data set [1], the inhibition constant (Ki) is below 1 nM. Moreover, the Human microsomal clearance result in data set [2] is “++ (50-75 μl min^−1 mg^−1)”. Besides, the “Ki(h-V1a)/Ki(h-V1b)” value in data set [3] is “+++ (>75)”.

As to `CCOc1ncc(C)cc1C1(NC(=O)N2CCN(C3CCN(CC)CC3)CC2)C(=O)N(S(=O)(=O)c2ccc(OC)cc2OC)c2ccc(Cl)cc21.O=C(O)C(F)(F)F` (racemic) [Example 15, (±)-4-(1-Ethylpiperidin-4-yl)piperazine-1-[5-chloro-1-(2,4-dimethoxyphenylsulfonyl)-3-(2-ethoxy-5-methylpyridin-3-yl)-2-oxo-2,3-dihydro-1H-indol-3-yl]carboxamide, trifluoroacetic acid salt], the inhibition constant Ki in data set [1] is below 1 nM. The Human microsomal clearance entry in data set [2] is “+ (>75-100 μl min^−1 mg^−1)”. The “Ki(h-V1a)/Ki(h-V1b)” value in data set [3] is “++ (25-75)”.

Regarding `CCOc1ncc(C)cc1C1(NC(=O)N2CCC(N3CCN(C)CC3)CC2)C(=O)N(S(=O)(=O)c2ccc(OC)cc2OC)c2ccc(Cl)cc21.O=C(O)C(F)(F)F` (racemic) [Example 16, (±)-4-(4-Methylpiperazin-1-yl)piperidine-1-[5-chloro-1-(2,4-dimethoxyphenylsulfonyl)-3-(2-ethoxy-5-methylpyridin-3-yl)-2-oxo-2,3-dihydro-1H-indol-3-yl]carboxamide, trifluoroacetic acid salt], in data set [1], the inhibition constant Ki is below 1 nM. In data set [2], the Human microsomal clearance entry is listed as “+ (>75-100 μl min^−1 mg^−1)”. Also, the “Ki(h-V1a)/Ki(h-V1b)” value in data set [3] is given as “+ (10-<25)”.

The compound `CCOc1ncc(C)cc1C1(NC(=O)N2CCC(N3CCN(CC)CC3)CC2)C(=O)N(S(=O)(=O)c2ccc(OC)cc2OC)c2ccc(Cl)cc21.O=C(O)C(F)(F)F` (racemic) [Example 17, (±)-4-(4-Ethylpiperazin-1-yl)piperidine-1-[5-chloro-1-(2,4-dimethoxyphenylsulfonyl)-3-(2-ethoxy-5-methylpyridin-3-yl)-2-oxo-2,3-dihydro-1H-indol-3-yl]carboxamide, trifluoroacetic acid salt] displayed an inhibitory constant (Ki) in data set [1] below 1 nM. Further, the Human microsomal clearance entry in data set [2] is on record as “+ (>75-100 μl min^−1 mg^−1)”. For the same compound, the “Ki(h-V1a)/Ki(h-V1b)” value in data set [3] is listed as “+ (10-<25)”.

In data set [1], `CCOc1ncccc1C1(OC(=O)N2CCN(C3CCN(C)CC3)CC2)C(=O)N(S(=O)(=O)c2ccccc2)c2ccc(Cl)cc21.O=C(O)C(F)(F)F` (racemic) [Example 24, 1-Phenylsulfonyl-5-chloro-3-(2-ethoxypyridin-3-yl)-2-oxo-2,3-dihydro-1H-indol-3-yl (±)-4-(1-methylpiperidin-4-yl)piperazine-1-carboxylate, trifluoroacetic acid salt] registered a Ki of 1 to 10 nM. The microsomal CLint at 0.5 μM in data set [2] was in the range of 50 to 75 µL/min/mg. Further, in data set [3], the “Ki(h-V1a)/Ki(h-V1b)” value was “++ (25-75)”.

As to `CCOc1ncccc1C1(CC(=O)N2CCN(C3CCN(C)CC3)CC2)C(=O)N(S(=O)(=O)c2ccc(OC)cc2OC)c2ccc(Cl)cc21.O=C(O)C(F)(F)F` (racemic) [Example 28, (±)-5-Chloro-1-(2,4-dimethoxyphenylsulfonyl)-3-(2-ethoxypyridin-3-yl)-3-{2-[4-(1-methylpiperidin-4-yl)piperazin-1-yl]-2-oxoethyl}-1,3-dihydroindol-2-one, trifluoroacetic acid salt], the Ki in data set [1] was below 1 nM. Moreover, the microsomal CLint at 0.5 μM in data set [2] lay in the range of 75 to 100 µL/min/mg. In addition, the “Ki(h-V1a)/Ki(h-V1b)” value in data set [3] was “++ (25-75)”.

As for `CCOc1ncccc1C1(CC(=O)N2CCN(C3CCN(C)CC3)CC2)C(=O)N(S(=O)(=O)c2ccccc2)c2ccc(Cl)cc21.O=C(O)C(F)(F)F` (racemic) [Example 29, (±)-1-Phenylsulfonyl-5-chloro-3-(2-ethoxypyridin-3-yl)-3-{2-[4-(1-methylpiperidin-4-yl)piperazin-1-yl]-2-oxoethyl}-1,3-dihydroindol-2-one, trifluoroacetic acid salt], the Ki in data set [1] is 1 to 10 nM. The microsomal CLint at 0.5 μM in data set [2] was below 50 µL/min/mg. In addition, the “Ki(h-V1a)/Ki(h-V1b)” value in data set [3] was “+ (10-<25)”.

`CCOc1ncccc1C1(CC(=O)N2CCC(N3CCN(CC)CC3)CC2)C(=O)N(S(=O)(=O)c2ccc(OC)cc2OC)c2ccc(Cl)cc21.O=C(O)C(F)(F)F` (racemic) [Example 32, (±)-5-Chloro-1-(2,4-dimethoxyphenylsulfonyl)-3-(2-ethoxypyridin-3-yl)-3-{2-[4-(4-ethylpiperazin-1-yl)piperidin-1-yl]-2-oxoethyl}-1,3-dihydroindol-2-one, trifluoroacetic acid salt] yielded an inhibition constant Ki in data set [1] below 1 nM. This compound also returned a microsomal CLint at 0.5 μM in data set [2] of 50 to 75 µL/min/mg. Further, the “Ki(h-V1a)/Ki(h-V1b)” value in data set [3] is “+ (10-<25)”.

Compound `CCOc1ncccc1C1(NC(=O)N2CCN(C3CCN(C)CC3)CC2)C(=O)N(S(=O)(=O)c2ccc(OC)cc2OC)c2ccc(Cl)cc21` (single isomer, unassigned; (+)) [Example 1B, (+)-4-(1-Methylpiperidin-4-yl)piperazine-1-[5-chloro-1-(2,4-dimethoxyphenylsulfonyl)-3-(2-ethoxypyridin-3-yl)-2-oxo-2,3-dihydro-1H-indol-3-yl]carboxamide] yielded a Ki in data set [1] below 1 nM. Also, the intrinsic metabolic clearance (microsomal CLint) at 0.5 μM in data set [2] was below 50 µL/min/mg. Further, the “Ki(h-V1a)/Ki(h-V1b)” value in data set [3] is “+++ (>75)”.

By Ki is commonly meant the dissociation constant of the complex between target and ligand, obtained from inhibition or displacement. A high value points to a looser hold on the target. A word on the microsomal CLint: it is a measure of how fast metabolising enzymes remove a compound, apart from limits set by blood flow.

The record behind these values is US20150158845A1, “5-HALOGEN-SUBSTITUTED OXINDOLE DERIVATIVES AND USE THEREOF FOR TREATING VASOPRESSIN-DEPENDENT DISEASES” (ABBVIE DEUTSCHLAND GMBH & CO. KG, priority 2007, published 2015).
